# Laboratory results as given in patent US8207206B2, “(S,R)-3-phenyl-4,5 dihydro-5-isoxazole acetic acid-nitric oxide and use thereof as anti-cancer and antiviral agent” (OncoNOx APS, priority 2007, dated 2012).
# Key:
# C6 cells = test: CFSE staining, tumor cell proliferation rate (flow cytometry); assay type: cell-based, rat; settings: C6, GIT27-NO 25 μg/ml, after 48 h; control 8.37%
# Procedure: The cells were seeded in flat-bottom 96-well plates (10^4 cells/well) in a final volume of 200 μl of culture medium, incubated overnight, then treated with different concentrations of the test compound. After 24 h incubation, cell viability was assessed using 3-4,5-dimethylthiazol-2-yl)-2,5-diphenyltetrazolium bromide (MTT) test, based on the mitochondrial-dependent reduction of MTT to formazan, or by crystal violet (CV) staining of adherent cells, as previously described (Mijatovic et al CMLS 2004). The results are presented as % of control values obtained in untreated cultures. The rate of cell proliferation was also determined using flow cytometric analysis of cells labeled with CFSE (Kang 2005). The cells were detached, added with 1.5 μM CFSE and allowed to stand for 15 min at 37° C., then washed twice and seeded in 6-well plates at 2×10^5. The cells were treated with the compound for 24 and 48 h, trypsinized and washed twice. Finally, the cells were resuspended in PBS and analyzed by flow cytometry. Green fluorescence emission from cells illuminated with excitation light of 488 nm was measured with a FACS Calibur (BD, Heidelberg, Germany) and analyzed using the CellQuest software.
# ConA-induced hepatitis = test: Hepatitis induced by concanavalin (ConA) injection in NMRI mice; assay type: in vivo; settings: prophylactic, all tested doses (0.5 and 1 i.p., 5 mg/mouse p.o.), -24 and -1 h prior to ConA, blood 8 h after ConA, vs vehicle
# Procedure: ConA-induced hepatitis is a cell-mediated immunoinflammatory condition similar to different immunoinflammatory conditions of liver diseases in humans that can be induced in mice by a single intravenous injection of ConA. This disease is characterized by a marked increase in the plasma levels of transaminase shortly (8-24 hours) after ConA challenge and simultaneous infiltration of the liver with neutrophils, macrophages and T cells followed by apoptosis and necrosis of the hepatocytes.
# Hepatitis was induced by ConA (Sigma Chemical, St. Louis, Mo.) injection into the tail veins in six to 9 weeks Naval Medical Research Institute (NMRI) male mice. Four groups of mice were treated or i.p. with Git27-NO at the doses of 0.5 and 1 or p.o. at 5 mg/mouse or with the vehicle, −24 and −1 hours prior to ConA. The animals were sacrificed for blood collection 8 hours after Con A injection and plasma alanine aminotransferase (ALT) activity was determined by a standard photometric assay using a bichromatic analyzer.
# [1] = test system: MAP kinases (p38 MAPK, ERK, JNK) in C6 cells; test: Cell-based ELISA for activation of MAP kinases; set-up: species or system rat; settings: C6, 25 μg/ml, time course
# Procedure: (§1) Activation of MAP kinases (p38 MAPK, extracellular signal-regulated kinase—ERK, and Jun-N-terminal kinase—JNK) or nuclear factor-κB (NF-κB) was determined by means of a slightly modified method of cell-based ELISA by Versteeg et al. (Versteeg 2000). Since MAP kinases are activated by phosphorylation, and phosphorylation of the inhibitory subunit IκB is a necessary step for NF-κB activation, we used antibodies specific for phosphorylated forms of MAP kinases (p-p38, p-ERK and p-JNK) and IκB (p-IκB). The cells were grown overnight in 96-well flat-bottom plates in a culture medium containing 0.5% FCS and then treated with the test compound diluted in conventional culture medium. At the end of treatment period the cells were fixed in 4% parformaldehyde, endogenous peroxydase was quenched with 1% H2O2 in PBS containing 0.1% Triton X-100 (PBST), and unspecific binding of antibodies was blocked with a PBST solution containing 10% FCS. Primary mouse monoclonal antibodies specific for rat/mouse p-ERK, p-p38, p-JNK, p-IκB (1:200; all from Santa Cruz Biotechnology, Santa Cruz, Calif.) were applied in PBST supplemented with 2% bovine serum albumine (PBSTB), followed by secondary peroxidase-conjugated goat anti-mouse IgG (1:2500 in PBSTB; USB corporation, Cleveland, Ohio) for anti-p-ERK, anti-p-JNK and anti-p-IκB, or anti-mouse IgM (1:4000; USB corporation) for detection of anti-p-p38. Incubation with antibodies was carried out at 37° C. for 1 h. After 15 min incubation with peroxydase substrate TMB and subsequent addition of 0.1 M HCl, the absorbance at 450 nm was measured in an automated microplate reader. To enable comparison between treatment and control, the resulting absorbances were corrected for the cell number determined by crystal violet staining, as described in the original protocol. The results are presented as relative expression in comparison with the control value, which was arbitrarily set to 1.
# B16 cells = test: LDH release assay (cell death); assay type: cell-based, mouse; settings: B16, dose-dependent (24 h) and time-dependent (25 μg/ml), significant after 18 h
# Procedure: As a marker of necrotic cell death, the release of intracellular enzyme LDH, which mediates the conversion 2,4-dinitrophenylhydrazine into visible hydrazone precipitate in the presence of pyruvate, was measured. […] The percentage of dead cells was determined using the following formula: [(E−C)/(T−C)]×100, wherein E is the experimental absorbance of treated cultures measured at 492 nm, C is the absorbance of supernatants of control untreated cells, and T is the absorbance corresponding to the maximal (100%) LDH release of Triton-lysed cells. Cell cycle analysis and apoptosis detection were carried out exactly as described in the literature (Mijatovic CMLS 2005). Acidic vesicular organelles, which characterise autophagy, are stained by vital dye acridin orange. The intensity of red fluorescence is proportional to the acidity and volume of the organelles, while the cytoplasm and nucleolus emits bright green and dim red (Kanzawa 2004). For the detection of autophagy the cells were cultivated in 6-well plates as previously described, detached and stained with 1 μg/ml acridin orange for 15 min at RT. At the end of the incubation period the cells were washed and finally resuspended in PBS. Green (510-530 nm) and red (>650 nm) fluorescence emission from 10^4 cells illuminated with blue (488 nm) excitation light was measured with a FACS Calibur and analyzed using CellQuest software.
# [2] = test system: MAP kinases (p38 MAPK, ERK, JNK) in B16 cells; test: Cell-based ELISA for activation of MAP kinases; set-up: species or system mouse; settings: B16, 25 μg/ml, time course
# Procedure: as §1
# [3] = test system: MAP kinases (p38 MAPK, ERK, JNK) in L929 cells; test: Cell-based ELISA for activation of MAP kinases; set-up: species or system mouse; settings: L929, 25 μg/ml, time course
# Procedure: as §1
structure (smiles),measurement,setting,value
"N#Cc1c(COC(=O)CC2CC(c3ccccc3)=NO2)no[n+]1[O-] (racemic) [GIT27-NO, (S,R)-3-phenyl-4,5 dihydro-5-isoxazole acetic acid-nitric oxide]",CFSE R1 = parent population,C6 cells,42.53%
same,plasma ALT activity,ConA-induced hepatitis,significantly reduced
same,activation of ERK1/2,[1],permanent activation
same,activation of JNK,[1],permanent activation
same,activity of p38,[1],not affected
same,LDH release,B16 cells,induced LDH release
same,activation of ERK1/2,[2],did not affect the activation
same,activation of JNK,[2],significant time-dependent activation
same,activation of p38,[2],only slight activation
same,activation of ERK1/2,[3],marked and sustained activation
same,activation of p38,[3],significant transient activation
same,expression (activation) of JNK,[3],without affecting the expression
